Like-named read-outs stand apart in the source and are kept apart here. Starred links: 1 amine or outer side, 2 acyl side, 3 side chain; linkers in the order of their positions; H or OH if unused. Residues, ends and D or L forms follow the SMILES beside them. *: point of attachment. Glutaryl = O=C(CCCC(=O)[*:2])[*:1]; NHPhenethyl = c1ccc(CCN*)cc1; Suc = O=C(CCC(=O)[*:2])[*:1]; NHPr = CCCN*
What was measured:
[1] = molecular target: swine's pancreatic elastase (E3) (Sus scrofa, UniProt P00772); experiment: Inhibition constants (Ki) with pancreatic elastase and chromogenic p-nitroanilide substrates; type: biochemical
Source text: (§1) The earlier work also led to the surprising discovery that the carboxy group in the N-terminal part of the inhibitor as compared with the hydrophobic residue, such as an acetyl, substantially enhances inhibition capacity in the same manner as it enhances the constants of elastolytic hydrolysis of substrates of this type. It is further known that the properties of an elastolytic inhibitor are dependent upon the length of the peptide chain as well as at the substrate (eur. J. Biochem. 69, 1, 1976), higher inhibition capacity being present with a tripeptide than with a dipeptide. Experiments with vitro inhibition constants (Ki) for the alkylamides of 3-carboxypropionyl and 4-carboxybutyryl di and tripeptides were determined using pancreatic elastase and chromogenic substrates of p-nitroanilides of succinyl or glutaryl tetraalanines, the results of which are set forth in Table 1, below. Inhibition constant of the inhibitors described herein were also determined using human elastase, that is, human duodenal elastase after stimulation with cholecystokinine (E1) or lyophilized human pancreated fluid obtained by cannulation of the pancreatic duct outlet (E2), and they were then compared with swine's pancreatic elastase (E3), the results of which are set forth in Table 2, below.

[2] = molecular target: human duodenal elastase after stimulation with cholecystokinine (E1); experiment: Inhibition constants (Ki) with human duodenal elastase and chromogenic substrates; type: biochemical
Source text: as §1

[3] = molecular target: lyophilized human pancreated fluid obtained by cannulation of the pancreatic duct outlet (E2); experiment: Inhibition constants (Ki) with human pancreatic fluid elastase and chromogenic substrates; type: biochemical
Source text: as §1

[4] = Experimental pancreatitis in rats induced by sodium desoxycholate, serum amylase; type: in vivo; conditions: simultaneous application of 20 mg intraperitoneally
[5] = Table 1, pancreatic elastase, substrate Glt-(Ala)4-NAn, read-out: Ki, substrate Glt-(Ala)4-NAn
[6] = Table 1, pancreatic elastase, substrate Suc-(Ala)4-NAn, read-out: Ki, substrate Suc-(Ala)4-NAn
[7] = Table 2, substrate Glt-(Ala)4-NAn, read-out: Ki, Glt-(Ala)4-NAn, E1
[8] = Table 2, substrate Suc-(Ala)4-NAn, read-out: Ki, Suc-(Ala)4-NAn, E1
[9] = Table 2, substrate Glt-(Ala)4-NAn, read-out: Ki, Glt-(Ala)4-NAn, E2
[10] = Table 2, substrate Suc-(Ala)4-NAn, read-out: Ki, Suc-(Ala)4-NAn, E2

Chain of swine's pancreatic elastase (E3) (P00772 27-266): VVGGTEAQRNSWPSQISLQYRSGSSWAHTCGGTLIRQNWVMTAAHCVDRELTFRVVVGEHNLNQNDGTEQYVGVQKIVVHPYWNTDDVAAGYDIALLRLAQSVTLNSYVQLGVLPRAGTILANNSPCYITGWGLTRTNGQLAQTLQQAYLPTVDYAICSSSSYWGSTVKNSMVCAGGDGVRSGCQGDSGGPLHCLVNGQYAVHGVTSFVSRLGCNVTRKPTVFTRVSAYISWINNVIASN

SMILES | Ki [1, 5] | Ki [1, 6] | Ki [2, 7] | Ki [2, 8] | Ki [3, 9] | Ki [3, 10] | Ki ([1]; Table 2, swine's pancreatic elastase (E3), substrate Suc-(Ala)4-NAn, read-out: Ki, Suc-(Ala)4-NAn, E3) | level of serum amylase [4] | Ki ([1]; Table 2, swine's pancreatic elastase (E3), substrate Glt-(Ala)4-NAn, read-out: Ki, Glt-(Ala)4-NAn, E3)
CCNC(=O)[C@H](C)NC(=O)[C@H](C)NC(=O)CCC(=O)O [Suc--(ala)2 --NH--Et] (Suc-Ala-Ala-NHEt) | 166 µM | 95.2 µM | – | – | – | – | – | – | –
CCNC(=O)[C@H](C)NC(=O)[C@H](C)NC(=O)[C@H](C)NC(=O)CCC(=O)O [Suc--(Ala)3 --NH--Et, 3-Carboxypropionylalanyl-alanyl Alanine Ethylamide] | 29 µM | 20 µM | 89 µM | 76 µM | 47 µM | 29 µM | 20 µM | – | –
CCNC(=O)[C@H](C)NC(=O)[C@H](C)NC(=O)CCCC(=O)O [Glt--(Ala)2 --NH--Et] (Glutaryl-Ala-Ala-NHEt) | 109 µM | 68.1 µM | – | – | – | – | – | – | –
CC(C)CNC(=O)[C@@H]1CCCN1C(=O)[C@H](C)NC(=O)CCC(=O)O [Suc--Ala--Pro--NH--iBu] | 5750 µM | 2040 µM | – | – | – | – | – | – | –
CC(C)CNC(=O)[C@H](C)NC(=O)[C@H](C)NC(=O)[C@H](C)NC(=O)CCCC(=O)O [Glt--(Ala)3 --NH--iBu, 4-Carboxybutyrylalanyl-alanyl Alanine Isobutylamide] | 794 µM | 668 µM | – | – | – | – | – | – | –
CNC(=O)[C@H](C)NC(=O)[C@H](C)NC(=O)[C@H](C)NC(=O)CCCC(=O)O [Glt--(Ala)3 --NH--Me] | 320 µM | 280 µM | – | – | – | – | – | – | –
CCCNC(=O)[C@@H]1CCCN1C(=O)[C@H](C)NC(=O)[C@H](C)NC(=O)CCCC(=O)O [Glt-Ala-Ala-Pro-Nh-Pr, 4-Carboxybutyrylalanyl-alanyl Proline Propylamide] (Glutaryl-Ala-Ala-Pro-NHPr) | – | – | – | – | – | – | – | lower level of serum amylase | –
CC(C)CNC(=O)[C@H](C)NC(=O)[C@H](C)NC(=O)[C@H](C)NC(=O)CCC(=O)O [Suc--(Ala)3 --NH--iBu, 3-Carboxypropionylalanyl-alanyl Alanine Isobutylamide] | 1470 µM | 816 µM | – | – | – | – | – | – | –
CCCNC(=O)[C@H](C)NC(=O)[C@H](C)NC(=O)[C@H](C)NC(=O)CCC(=O)O [Suc--(Ala)3 --NH--Pr, 3-Carboxypropionylalanyl-alanyl Alanine Propylamide] | 4.5 µM | 6.8 µM | 21 µM | 12 µM | 14 µM | 13 µM | – | – | –
CCCNC(=O)[C@H](C)NC(=O)[C@H](C)NC(=O)[C@H](C)NC(=O)CCCC(=O)O [Glt--(Ala)3 --NH--Pr, 4-Carboxybutyrylalanyl-alanyl Alanine Propylamide] | 2.5 µM | 2.5 µM | 7.2 µM | 11 µM | 4.5 µM | 3.8 µM | – | – | –
CCNC(=O)[C@H](C)NC(=O)[C@H](C)NC(=O)[C@H](C)NC(=O)C=CC(=O)O [Mal--(Ala)3 --NH--Et, 3-Carboxyacryolylalanyl-alanyl Alanine Ethylamide] | 30 µM | 35 µM | 73 µM | 87 µM | 117 µM | 69 µM | – | – | 30 µM
CCNC(=O)[C@H](C)NC(=O)[C@H](C)NC(=O)[C@H](C)NC(C)=O [Ac--(Ala)3 --NH--Et, reference compound] | 46 µM | 28 µM | 123 µM | 238 µM | 117 µM | 69 µM | – | – | –
CCNC(=O)[C@@H]1CCCN1C(=O)[C@H](C)NC(=O)CCC(=O)O [Suc--Ala--Pro--NH--Et, 3-Carboxypropionylalanyl Proline Ethylamide] (Suc-Ala-Pro-NHEt) | 80 µM | 111 µM | – | – | – | – | – | – | –
CNC(=O)[C@H](C)NC(=O)[C@H](C)NC(=O)[C@H](C)NC(=O)CCC(=O)O [Suc--(Ala)3 --NH--Me] | 680 µM | 510 µM | – | – | – | – | – | – | –
C[C@H](NC(=O)CCC(=O)O)C(=O)N[C@@H](C)C(=O)NCCc1ccccc1 [Suc--(Ala)2 --NH--EtPh, 3-Carboxypropionylalanyl Alanine Phenylethylamide] (Suc-Ala-Ala-NHPhenethyl) | 666 µM | 1460 µM | – | – | – | – | – | – | –
CCNC(=O)[C@@H]1CCCN1C(=O)[C@H](C)NC(=O)[C@H](C)NC(=O)CCCC(=O)O [Glt--Ala--Ala--Pro--NH--Et, 4-Carboxybutyrylalanyl-alanyl Proline Ethylamide] (Glutaryl-Ala-Ala-Pro-NHEt) | 2.7 µM | 1.6 µM | 12 µM | 10 µM | 13.8 µM | 2.9 µM | – | lower level of serum amylase | –
CCNC(=O)[C@@H]1CCCN1C(=O)[C@H](C)NC(=O)[C@H](C)NC(=O)CCC(=O)O [Suc--Ala--Ala--Pro--NH--Et, 3-Carboxypropionylalanyl-alanyl Proline Ethylamide] (Suc-Ala-Ala-Pro-NHEt) | 4.7 µM | 2.5 µM | 19 µM | 14 µM | 17 µM | 23 µM | – | – | –
CCNC(=O)[C@H](C)NC(=O)[C@H](C)NC(=O)[C@H](C)NC(=O)CCCC(=O)O [Glt--(Ala)3 --NH--Et, 4-Carboxybutyrylalanyl-alanyl Alanine Ethylamide] | 8.4 µM | 8.8 µM | 19 µM | 15 µM | 19 µM | 7.4 µM | – | lower level of serum amylase | –
